Laboratory results from patent publication US12195424B2, “Antibiotic compounds” (The General Hospital Corporation, priority 2017, dated 2025).
Values after ≈ are worked out from the molar mass of the structure shown. Where two headings read alike, the source gives them in different places.

What was measured:
S. aureus strain MW2 = experiment: Minimal inhibitory concentration (MIC) assay; type: cell-based; settings: for antimicrobial activity: S. aureus MW2, in words; for fold decrease in antimicrobial activity (fold higher MIC) vs. parent compound CD437: relative to CD437; for MIC: growing MRSA MW2 cells
Source text: Bacterial strains, growth conditions and persister isolation. Methicillin-resistant S. aureus (MRSA) strain MW2 BAA-1707, the VanA-type vancomycin-resistant S. aureus strain VRS1, 11 clinical S. aureus isolates 8 clinical Enterococcus faecium isolates (including VanB-type VRE isolates, C68 and WB312, and a VanA-type VRE isolate WC196), Klebsiella pneumoniae WGLW2 (BEI Resources, Manassas, VA, USA), Acinetobacter baumannii ATCC 17978, Pseudomonas aeruginosa PA14, and Enterobacter aerogenes ATCC 13048 were used to test antimicrobial activity. S. aureus and E. faecium strains were grown in tryptic soy broth (TSB) (BD, Franklin Lakes, NJ, USA) or brain-heart infusion (BHI) broth (BD, Franklin Lakes, NJ, USA), respectively at 37° C. K. pneumoniae, A. baumannii, P aeruginosa, and E. aerogenes were grown in Luria Bertani (LB) broth (BD, Franklin Lakes, NJ, USA).
(§1) Minimal inhibitory concentration (MIC) assay. The MICs of antibiotics were determined by the standard micro-dilution method recommended by the Clinical and Laboratory Standards Institute. The assay was conducted in triplicate.

MRSA MW2 persisters = experiment: Persister killing assay; type: cell-based, S. aureus; settings: Staphylococcus aureus; MRSA MW2 persisters; read-out: MIC against MRSA persisters
Protocol: Persister killing assay. […] Persistency of stationary-phase S. aureus VRS1 was evaluated by treating with 100×MIC daptomycin and 100×MIC linezolid, because the strain is resistant to vancomycin, gentamicin, ciprofloxacin, and rifampicin. We prepared persister cells of the 13 S. aureus strains by growing cultures overnight to stationary phase at 37° C. at 225 rpm. The overnight cultures were washed three times with PBS and diluted to ˜5×10^7 ? CFU/ml with the same buffer. 2 ml of the persister suspension containing appropriate concentrations of antibiotics was added to the wells of a 96-well assay block (Corning Costar 3960) and incubated at 37° C., with shaking at 225 rpm. At specific times, 400 μl samples were removed and washed once with PBS to remove the antibiotic. The samples were serially diluted 10^5 fold with PBS and spot-plated onto TSA plates. After incubating the plates overnight (˜18 h) at 37° C., the colonies were counted to enumerate the number of cells. These experiments were conducted in triplicate.

human erythrocytes = experiment: Human blood hemolysis; type: cell-based; settings: compared with CD437, in words
Protocol: Human blood hemolysis. Hemolytic activity of retinoids on human erythrocytes was evaluated using a previously described method with modifications. 10% human erythrocytes were purchased from Rockland Immunochemicals (Limerick, PA, USA). The erythrocytes were diluted to 4% with PBS, and 100 μl was added to 100 μl of two-fold serial dilutions of compounds in PBS, 0.2% DMSO (negative control), or 2% Triton-X 100 (positive control) in a 96-well plate. The plate was incubated at 37° C. for 1 h and then centrifuged at 500×g for 5 min. 100 μl of the supernatant was transferred to a fresh 96-well plate and absorbance of supernatants was measured at 540 nm. Percent hemolysis was calculated using the following equation: (A540 nm of compound treated sample−A540 nm of 0.1% DMSO treated sample)/(A540 nm of 1% Triton X-100 treated sample−A540 nm of 0.1% DMSO treated sample)×100. HC50 (concentration of compound causing 50% hemolysis) was determined using SigmaPlot 10.0 (Systat Software Inc., San Jose, CA, USA).

rat primary hepatocytes = experiment: Hepatotoxicity in primary hepatocytes; type: cell-based; settings: 24 h, compared with CD437, in words
Protocol: Cytotoxicity. Cryopreserved rat and human primary hepatocytes were purchased from the Cell Resource Core at Massachusetts General Hospital (Boston, MA, USA). The hepatocytes were cultured in a collagen sandwiched configuration in 24-well plates, as described previously. Briefly, 4×10^5 live cells were seeded in 24-well plates coated with rat tail collagen type I. Plates were incubated in a humidified 5% CO2 incubator at 37° C. for 4 h to allow cells to attach to the collagen gel. The cells were washed and then cultured in 0.5 ml standard hepatocyte culture medium consisting of pre-warmed Dulbecco's modified Eagle's medium (DMEM) media supplemented with 10% FBS, 0.5 U/ml insulin, 14 ng/ml glucagon, 20 ng/ml EGF, 7.5 μg/ml hydrocortisone and 200 U/ml penicillin-streptomycin. The cell cultures were incubated in a humidified 5% CO2 incubator at 37° C. At 24 h after seeding the cells, a top layer of collagen gel was deposited on the hepatocytes attached to the bottom collagen layer and incubated for additional 24 h. For cytotoxicity tests, HepG2, RPTEC, and NHEK were cultured at 70-80% confluence in tissue culture treated 96-well plates in a volume of 100 μl/well corresponding culture media. […] WST-1 reduction was measured at 450 nm. The percent fluorescence relative to that of the no-treatment control was calculated. […]

[1] = tested on: Cutibacterium (Propionibacterium) acnes; experiment: Growth inhibition / MIC against P. acnes; type: cell-based; settings: in words (FIG. 11)
Protocol: as §1
More specifically, uptake of SYTOX Green by Cutibacterium (Propionibacterium) acnes cells treated with retinoids CD437 and Analog 2 increased, indicating higher permeability (FIG. 12; individual data points (n=3 biologically independent samples) and means are shown).

[2] = tested on: Cutibacterium (Propionibacterium) acnes; experiment: Morphology of treated P. acnes bacteria; type: cell-based; settings: in words (FIG. 13)
[3] = in words; cited from earlier work
Maximum tolerated dose = type: in vivo; settings: mice, every 12 h for 3 days; Analog 2 10-80 mg/kg i.p., vancomycin 25 mg/kg i.p.; P>0.7
Protocol: Maximum tolerated dose. Six-week-old female CD1 ICR outbred mice (20-25 g) were obtained from Charles River Laboratories (Wilmington, MA, USA). Analog 2 was dissolved in a 1:1 solution of Kolliphor EL (Sigma-Aldrich, St Louis, MO, USA) and ethanol and then diluted 1:10 in saline to a final concentration of 4 mg/ml. Groups of mice (n=6) were treated with 10, 20, 40, 80 mg/kg Analog 2 i.p. or vancomycin (25 mg/kg) every 12 h for 3 days. Control mice were injected with 400 μl of 10% Kolliphor EL/ethanol in saline i.p. every 12 h for 3 days. Mice were closely monitored until they were euthanized at 72 h from the first infection. After euthanizing mice, blood was collected by cardiac puncture. All samples were stored at 4° C. until for analysis. Serum was analyzed for alanine aminotransferase and urea nitrogen content with commercially available kits, following the manufacturer's protocol (Pointe Scientific, Canton, MI, USA). No statistical methods were used to predetermine samples size. The experiments were not randomized, and investigators were not blinded to allocation during experiments and outcome assessment. This study and all experimental protocols were approved by the Rhode Island Hospital Institutional Animal Care and Use Committee (RIH IACUC) and conducted in accordance with the Animal Welfare Act and National Institutes of Health guidelines for animal care and use. Statistical significance among each group was analyzed by one-way ANOVA with post-hoc Tukey test using PASW Statistics 18 (SPSS Inc. Chicago, IL, USA) and GraphPad Prism 7 (GraphPad Software, La Jolla, CA, USA).

[4] = Staphylococcus aureus, read-out: MIC

NC(=O)c1ccc2cc(-c3ccc(O)c(C45CC6CC(CC(C6)C4)C5)c3)ccc2c1 [Analog 3, 6-(3-(adamantan-1-yl)-4-hydroxyphenyl)-2-naphthamide]
antimicrobial activity (S. aureus strain MW2): comparatively low

COc1ccc(-c2ccc3cc(CO)ccc3c2)cc1C12CC3CC(CC(C3)C1)C2 [Analog 6, (6-(3-(adamantan-1-yl)-4-methoxyphenyl)naphthalen-2-yl)methanol]
antimicrobial activity (S. aureus strain MW2): eliminated

O=C(O)c1ccc2cc(-c3ccc(O)c(Cc4ccccc4)c3)ccc2c1 [Analog 9, 6-(3-benzyl-4-hydroxyphenyl)-2-naphthoic acid]
fold decrease in antimicrobial activity (fold higher MIC) vs. parent compound CD437 (S. aureus strain MW2; MRSA MW2): 2 fold
MIC (S. aureus strain MW2; [4]): 2 mg/L (≈ 5.64 µM)
MIC (MRSA MW2 persisters): 16 mg/L (≈ 45.1 µM)
hemolytic activity (human erythrocytes): similar
hepatotoxicity (rat primary hepatocytes): similar

O=C(O)c1ccc2cc(-c3cc(C45CC6CC(CC(C6)C4)C5)ccc3O)ccc2c1 [Analog 10, 6-(5-(adamantan-1-yl)-2-hydroxyphenyl)-2-naphthoic acid]
fold decrease in antimicrobial activity (fold higher MIC) vs. parent compound CD437 (S. aureus strain MW2; MRSA MW2): > 30 fold
MIC (S. aureus strain MW2; [4]): 32 mg/L (≈ 80.3 µM)

O=C(O)c1cc(O)c2cc(-c3ccc(O)c(C45CC6CC(CC(C6)C4)C5)c3)ccc2c1 [Analog 11, 6-(3-(adamantan-1-yl)-4-hydroxyphenyl)-4-hydroxy-2-naphthoic acid]
fold decrease in antimicrobial activity (fold higher MIC) vs. parent compound CD437 (S. aureus strain MW2; MRSA MW2): 4 fold
MIC (S. aureus strain MW2; [4]): 4 mg/L (≈ 9.65 µM)

O=C(O)c1cc(O)c2cc(-c3cc(C45CC6CC(CC(C6)C4)C5)ccc3O)ccc2c1 [Analog 13, 6-(5-(adamantan-1-yl)-2-hydroxyphenyl)-4-hydroxy-2-naphthoic acid]
fold increase in antimicrobial activity vs. Analog 10 (S. aureus strain MW2; MRSA MW2, relative to Analog 10): 8 fold
MIC (S. aureus strain MW2; [4]): 4 mg/L (≈ 9.65 µM)

O=C(O)c1cc(O)c2cc(-c3ccc(O)c(C45CC6CC(CC(C6)C4)C5)c3)cc(O)c2c1 [Analog 14, 6-(3-(adamantan-1-yl)-4-hydroxyphenyl)-4,8-dihydroxy-2-naphthoic acid]
fold decrease in antimicrobial activity vs. Analog 11 (S. aureus strain MW2; MRSA MW2, another decrease relative to Analog 11): 4 fold
MIC (S. aureus strain MW2; [4]): 16 mg/L (≈ 37.2 µM)

O=C(O)c1cc(O)c2cc(-c3cc(C45CC6CC(CC(C6)C4)C5)ccc3O)cc(O)c2c1 [Analog 16, 6-(5-(adamantan-1-yl)-2-hydroxyphenyl)-4,8-dihydroxy-2-naphthoic acid]
MIC (S. aureus strain MW2; [4]): 8 mg/L (≈ 18.6 µM)

O=C(O)c1ccc2cc(-c3ccc(O)c(C45CC6CC(CC(C6)C4)C5)c3)ccc2c1 [CD437, reference compound]
MIC (S. aureus strain MW2): 1 mg/L (≈ 2.51 µM)
growth inhibition [1]: inhibit the growth
morphology of bacteria [2]: altered and elongated

COc1ccc(-c2ccc3cc(C(=O)O)ccc3c2)cc1C12CC3CC(CC(C3)C1)C2 [adapalene]
growth inhibition [1]: not

O=C(O)/C=C/c1ccc(-c2ccc(O)c(C34CC5CC(CC(C5)C3)C4)c2)cc1 [adarotene]
excretion [3]: excreted rapidly

CN[C@H](CC(C)C)C(=O)N[C@H]1C(=O)N[C@@H](CC(N)=O)C(=O)N[C@H]2C(=O)N[C@H]3C(=O)N[C@H](C(=O)N[C@H](C(=O)O)c4cc(O)cc(O)c4-c4cc3ccc4O)[C@H](O)c3ccc(c(Cl)c3)Oc3cc2cc(c3O[C@@H]2O[C@H](CO)[C@@H](O)[C@H](O)[C@H]2O[C@H]2C[C@](C)(N)[C@H](O)[C@H](C)O2)Oc2ccc(cc2Cl)[C@H]1O [vancomycin, reference compound]
alanine aminotransferase (ALT) vs. control (Maximum tolerated dose): lack of significant differences
blood urea nitrogen (BUN) vs. control (Maximum tolerated dose): lack of significant differences
